One may read the IC50 as the concentration at which inhibition is half-maximal. The term AC50 denotes the concentration giving half of the maximal activity seen.

Counter-ions that a name gives are not always drawn. Like-named read-outs stand apart in the source and are kept apart here.

Common to all, as to assay type: cell-based, human
For assay [1], the system named is Target C. In words: HiBiT protein abundance assay, Target C (K562 HiBiT knock-in). To be noted: HiBiT knock-in K562 cells, 24 hours, top dose 10 μM. The method, boiled down: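 K562 HiBiT knock-in cells (10000/well) were treated 24 h at 37° C with a 10-point 3-fold dilution series (top 10 μM final, ≤0.25% DMSO). HiBiT luminescence was read after lytic LgBiT detection. Percent response used unmodified K562 and DMSO-treated knock-in controls, and IC50 came from a four-parameter fit at 50% of untreated.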
For orientation: The HiBiT peptide binds its large partner to form an active luciferase.

Assay [2] has as its system SMN2 mRNA. In words: RT-qPCR splicing assay, SMN2 mRNA. Particulars: Homo sapiens, canonical junction qPCR panel, Table 4; read-out: SMN2 IC50 (decrease in CJ mRNA levels). In short, it runs like this:
(§1)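 Junction-specific RT-qPCR read-out: CJ and AJ isoform levels, housekeeper-normalized (GAPDH/GUSB/PPIA), ΔΔCt vs DMSO, converted to RQ then % response. Cells: A673 (DMEM/10% FBS, adhered 24 h) or K562 (IMDM/10% FBS). Compound 11-pt 3-fold, top 10 uM, 24 h, 37 °C.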

The test system of assay [3] is MYB. In words: HiBiT protein abundance assay, MYB (K562 HiBiT knock-in). To be noted: HiBiT knock-in K562 cells, 24 hours, top dose 10 μM. In short, it runs like this:
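Steps: seed HiBiT knock-in K562 cells; add compound in 10-point 3-fold series from 10 μM final; incubate 24 h, 37 °C; add lytic HiBiT reagent, shake 5 min, wait 10 min; read luminescence. Normalize to parental K562 and DMSO controls, fit 4PL, take IC50.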

In assay [4] the test system is HTT mRNA. In words: RT-qPCR splicing assay, HTT mRNA canonical (CJ) and alternative (AJ) junction. To be noted: Homo sapiens; for AC50: HTT alternative junction mRNA, read-out: HTT AJ (increase in AJ mRNA, AC50). The method, boiled down: as §1
Background: Real-time PCR tracks product formation cycle by cycle.

[5] abbreviates: HTT canonical junction mRNA, RT-qPCR, read-out: HTT CJ (decrease in CJ mRNA levels, IC50).
Setting [6] is: canonical junction qPCR panel, Table 4, read-out: HTT IC50 (decrease in CJ mRNA levels).

Consider `Cc1nc2cc(O)c(-c3ccc4nc(N5CCN[C@H](C6CC6)C5)ccc4n3)cc2o1` [Compound 421], for which the IC50 in assay [1], in assay [2], in assay [3], in assay [4] (setting [5]) and in assay [4] (setting [6]) was 100 to 1000 nM each time. Besides, the half-maximal activity concentration (AC50) in assay [4] (RT-qPCR) fell in the range of 100 to 1000 nM.

For the compound `Cc1nc2cc(O)c(-c3ccc4nc(N5CCN[C@@H](C(C)C)C5)ccc4n3)cc2o1` [Compound 422], the IC50 is 100 to 1000 nM in assay [1]; below 100 nM in assay [2]; 100 to 1000 nM in assay [3]; 100 to 1000 nM in assay [4] (setting [5]); 100 to 1000 nM in assay [4] (setting [6]). Also, the AC50 in assay [4] (RT-qPCR) fell in the range of 100 to 1000 nM.

`Cc1nc2cc(O)c(-c3ccc4nc(N5CCC(N)CC5)ccc4n3)cc2o1` [Compound 424]: the IC50 was 100 to 1000 nM in assay [1]; below 100 nM in assay [2]; 1000 to 10000 nM in assay [3]; 1000 to 10000 nM in assay [4] (setting [5]); 1000 to 10000 nM in assay [4] (setting [6]). For the same compound, in assay [4] (RT-qPCR), the AC50 lay within 1000 to 10000 nM.

`CNC1CCN(c2ccc3nc(-c4cc5oc(C)nc5cc4O)ccc3n2)CC1` [Compound 425]: the IC50 in assay [1] was in the range of 1000 to 10000 nM; in assay [2], 100 to 1000 nM; in assay [3], 1000 to 10000 nM; in assay [4] (setting [5]), 1000 to 10000 nM; in assay [4] (setting [6]), 1000 to 10000 nM. For the same compound, in assay [4] (RT-qPCR), the AC50 is 1000 to 10000 nM.

With `Cc1nc2c(C)c(O)c(-c3ccc4nc(N5CC[C@H](NC6CC6)C5)ncc4n3)cc2o1` [Compound 433, 6-{2-[(3S)-3-(cyclopropylamino)pyrrolidin-1-yl]pyrido[3,2-d]pyrimidin-6-yl}-2,4-dimethyl-1,3-benzoxazol-5-ol], the IC50 in assay [1] was below 100 nM; in assay [2], below 100 nM; in assay [3] it was 100 to 1000 nM; in assay [4] (setting [5]) it was below 100 nM; in assay [4] (setting [6]) it was below 100 nM. In assay [4] (RT-qPCR), the AC50 was below 100 nM.

For `Cc1nc2cc(O)c(-c3ccc4nc(N5CC[C@H](NC6CC6)C5)ncc4n3)cc2o1` [Compound 435, 6-{2-[(3S)-3-(cyclopropylamino)pyrrolidin-1-yl]pyrido[3,2-d]pyrimidin-6-yl}-2-methyl-1,3-benzoxazol-5-ol], the IC50 in assay [1] is 100 to 1000 nM; in assay [2] it was below 100 nM; in assay [3], 100 to 1000 nM; in assay [4] (setting [5]) it was 100 to 1000 nM; in assay [4] (setting [6]), 100 to 1000 nM. For the same compound, the AC50 in assay [4] (RT-qPCR) fell in the range of 100 to 1000 nM.

As to `Cc1nc2c(C)c(O)c(-c3ccc4nc(N5CC[C@@H](NC(C)(C)C)C5)ncc4n3)cc2o1` [Compound 436], the IC50 in assay [1], in assay [2], in assay [3], in assay [4] (setting [5]) and in assay [4] (setting [6]) was below 100 nM each time. Besides, the AC50 in assay [4] (RT-qPCR) is below 100 nM.

With `Cc1nc2c(C)c(O)c(-c3ccc4nc(N5CC[C@H](NC(C)(C)C)C5)ncc4n3)cc2o1` [Compound 437], the half-maximal inhibitory concentration (IC50) is below 100 nM in assay [1]; 100 to 1000 nM in assay [2]; 100 to 1000 nM in assay [3]; below 100 nM in assay [4] (setting [5]); below 100 nM in assay [4] (setting [6]). For the same compound, the AC50 in assay [4] (RT-qPCR) is below 100 nM.

For `Cc1c(O)c(-c2ccc3nc(N4CC[C@@H](NC5CC5)C4)ncc3n2)cc2cn(C)nc12` [Compound 438, 5-{2-[(3R)-3-(cyclopropylamino)pyrrolidin-1-yl]pyrido[3,2-d]pyrimidin-6-yl}-2,7-dimethylindazol-6-ol], the IC50 in assay [1] was below 100 nM; in assay [2], below 100 nM; in assay [3], 100 to 1000 nM; in assay [4] (setting [5]), below 100 nM; in assay [4] (setting [6]), below 100 nM. Further, in assay [4] (RT-qPCR), the AC50 is below 100 nM.

Consider `Cc1c(O)c(-c2ccc3nc(N4CC[C@H](NC5CC5)C4)ncc3n2)cc2cn(C)nc12` [Compound 439, 5-{2-[(3S)-3-(cyclopropylamino)pyrrolidin-1-yl]pyrido[3,2-d]pyrimidin-6-yl}-2,7-dimethylindazol-6-ol], for which the IC50 in assay [1] was below 100 nM; in assay [2], below 100 nM; in assay [3] it was 100 to 1000 nM; in assay [4] (setting [5]) it was below 100 nM; in assay [4] (setting [6]), below 100 nM. The AC50 in assay [4] (RT-qPCR) is below 100 nM.

On to `Cc1nc2c(C)c(O)c(-c3ccc4cc(N5CC[C@@H](NC6CC6)C5)ncc4n3)cc2o1` [Compound 440, 6-{6-[(3R)-3-(cyclopropylamino)pyrrolidin-1-yl]-1,7-naphthyridin-2-yl}-2,4-dimethyl-1,3-benzoxazol-5-ol], for which the IC50 in assay [1] is below 100 nM; in assay [2], below 100 nM; in assay [3] it was 100 to 1000 nM; in assay [4] (setting [5]), below 100 nM; in assay [4] (setting [6]), below 100 nM. Moreover, the AC50 in assay [4] (RT-qPCR) lay in the range of 100 to 1000 nM.

Regarding `Cc1nc2c(C)c(O)c(-c3ccc4cc(N5CC[C@H](NC6CC6)C5)ncc4n3)cc2o1` [Compound 441, 6-{6-[(3S)-3-(cyclopropylamino)pyrrolidin-1-yl]-1,7-naphthyridin-2-yl}-2,4-dimethyl-1,3-benzoxazol-5-ol], the IC50 in assay [1] was 100 to 1000 nM; in assay [2], below 100 nM; in assay [3] it was 1000 to 10000 nM; in assay [4] (setting [5]), below 100 nM; in assay [4] (setting [6]), below 100 nM. For the same compound, the AC50 in assay [4] (RT-qPCR) was in the range of 100 to 1000 nM.

For `Cn1cc2cc(-c3ccc4nc(C5CCNC6(CC6)C5)ncc4n3)c(O)cc2n1` (stereo not drawn) [Compound 448, 5-(2-{4-azaspiro[2.5]octan-7-yl}pyrido[3,2-d]pyrimidin-6-yl)-2-methylindazol-6-ol], the 50% inhibitory concentration (IC50) is 100 to 1000 nM in assay [1]; below 100 nM in assay [2]; 100 to 1000 nM in assay [3]; 100 to 1000 nM in assay [4] (setting [5]); 100 to 1000 nM in assay [4] (setting [6]). Further, in assay [4] (RT-qPCR), the AC50 was 1000 to 10000 nM.

For the compound `Cn1cc2cc(-c3ccc4cc(N5CCC(NC(C)(C)C)C5)ncc4n3)c(O)cc2n1` (stereo not drawn) [Compound 449, 5-{6-[3-(tert-butylamino)pyrrolidin-1-yl]-1,7-naphthyridin-2-yl}-2-methylindazol-6-ol], the IC50 in assay [1] was 100 to 1000 nM; in assay [2], below 100 nM; in assay [3], 100 to 1000 nM; in assay [4] (setting [5]) it was 1000 to 10000 nM; in assay [4] (setting [6]), 1000 to 10000 nM. Moreover, the AC50 in assay [4] (RT-qPCR) is 1000 to 10000 nM.

On to `Cc1nc2cc(O)c(-c3ccc4cc(N5CC[C@H](NC(C)(C)C)C5)ncc4n3)cc2o1` [Compound 450], for which the IC50 in assay [1], in assay [2], in assay [3], in assay [4] (setting [5]) and in assay [4] (setting [6]) was 1000 to 10000 nM throughout. For the same compound, the AC50 in assay [4] (RT-qPCR) was 1000 to 10000 nM.

With `Cc1c(O)c(-c2cc(Cl)c3cc(N4CCNCC4)cc(C)c3n2)cc2cn(C)nc12` [Compound 482, 5-[4-chloro-8-methyl-6-(piperazin-1-yl)577yrrolidi-2-yl]-2,7-dimethylindazol-6-ol hydrochloride], the IC50 is 100 to 1000 nM in assay [1]; below 100 nM in assay [2]; below 100 nM in assay [3]; below 100 nM in assay [4] (setting [5]); below 100 nM in assay [4] (setting [6]). Further, in assay [4] (RT-qPCR), the AC50 fell in the range of 100 to 1000 nM.

As to `Cc1cc2nc(-c3cc4cn(C)nc4c(C)c3O)cc(Cl)c2cc1N1CCNCC1` [Compound 484, 5-[4-chloro-7-methyl-6-(piperazin-1-yl)586yrrolidi-2-yl]-2,7-dimethylindazol-6-ol], the IC50 in assay [1] was 1000 to 10000 nM; in assay [2] it was below 100 nM; in assay [3], 100 to 1000 nM; in assay [4] (setting [5]), above 10000 nM; in assay [4] (setting [6]), above 10000 nM. Moreover, the AC50 in assay [4] (RT-qPCR) is above 10000 nM.

Consider `CNC1CCN(c2cc3c(Cl)cc(-c4cc5cn(C)nc5c(C)c4O)nc3cc2C)C1` (stereo not drawn) [Compound 486, 5-{4-chloro-7-methyl-6-[3-(methylamino)pyrrolidin-1-yl]quinolin-2-yl}-2,7-dimethylindazol-6-ol], for which the IC50 in assay [1] was 1000 to 10000 nM; in assay [2], below 100 nM; in assay [3], 100 to 1000 nM; in assay [4] (setting [5]), 1000 to 10000 nM; in assay [4] (setting [6]), 1000 to 10000 nM. Moreover, the concentration at half-maximal activity (AC50) in assay [4] (RT-qPCR) was 1000 to 10000 nM.

Source of the values: patent publication US20250092065A1, “2-(INDAZOL-5-YL)-6-(PIPERIDIN-4-YL)-1,7-NAPHTHYRIDINE DERIVATIVES AND RELATED COMPOUNDS AS MODULATORS FOR SPLICING NUCLEIC ACIDS AND FOR THE TREATMENT OF PROLIFERATIVE DISEASES” (REMIX THERAPEUTICS INC., priority 2022, published 2025).
